Measured values published in patent US20260028365A1 (BIOGEN MA INC., priority 2022, published 2026).

Experiments:
[1] = target: JH2 domain of human Tyk2 (Homo sapiens (Human), UniProt P29597); test: JH2 Biochemical Assay (TR-FRET probe displacement); type: binding; conditions: JH2 domain of human Tyk2, TR-FRET probe displacement
[2] = target: Tyk2 (Homo sapiens (Human), UniProt P29597); test: pSTAT4 Cell Assay (MSD, NK92 cells); type: cell-based; conditions: MSD
Chain of Tyk2 (P29597 whole entry): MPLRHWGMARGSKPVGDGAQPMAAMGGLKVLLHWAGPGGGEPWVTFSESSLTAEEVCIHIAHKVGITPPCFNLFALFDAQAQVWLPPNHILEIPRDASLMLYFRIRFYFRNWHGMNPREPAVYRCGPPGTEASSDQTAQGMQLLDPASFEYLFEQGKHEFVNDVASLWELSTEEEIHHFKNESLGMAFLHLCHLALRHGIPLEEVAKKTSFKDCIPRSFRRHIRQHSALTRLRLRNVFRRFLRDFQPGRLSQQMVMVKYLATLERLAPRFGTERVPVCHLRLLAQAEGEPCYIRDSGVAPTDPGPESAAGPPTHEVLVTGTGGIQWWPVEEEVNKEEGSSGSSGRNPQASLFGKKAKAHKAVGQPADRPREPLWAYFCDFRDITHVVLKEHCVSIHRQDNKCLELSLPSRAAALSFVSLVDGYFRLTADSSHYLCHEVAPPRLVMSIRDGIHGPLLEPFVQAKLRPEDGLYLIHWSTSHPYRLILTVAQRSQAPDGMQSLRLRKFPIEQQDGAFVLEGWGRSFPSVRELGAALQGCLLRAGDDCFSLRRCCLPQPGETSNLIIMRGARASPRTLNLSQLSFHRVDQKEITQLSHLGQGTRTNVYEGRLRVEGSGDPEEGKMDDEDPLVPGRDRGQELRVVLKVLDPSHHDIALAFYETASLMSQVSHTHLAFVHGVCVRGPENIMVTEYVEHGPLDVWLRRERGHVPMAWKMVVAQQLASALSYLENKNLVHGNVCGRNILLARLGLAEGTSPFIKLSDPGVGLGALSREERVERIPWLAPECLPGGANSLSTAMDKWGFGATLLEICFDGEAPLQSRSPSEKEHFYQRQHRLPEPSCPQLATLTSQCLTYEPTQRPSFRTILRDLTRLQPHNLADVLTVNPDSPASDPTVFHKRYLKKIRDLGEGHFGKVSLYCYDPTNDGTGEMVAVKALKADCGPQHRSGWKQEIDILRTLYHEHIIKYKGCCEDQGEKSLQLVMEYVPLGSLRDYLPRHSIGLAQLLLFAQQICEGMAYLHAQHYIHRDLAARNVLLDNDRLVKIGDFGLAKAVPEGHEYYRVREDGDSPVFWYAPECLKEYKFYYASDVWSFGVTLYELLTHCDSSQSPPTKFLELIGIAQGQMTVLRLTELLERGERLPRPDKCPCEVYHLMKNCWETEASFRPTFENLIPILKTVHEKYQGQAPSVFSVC

Chain of JH2 domain of human Tyk2 (P29597 575-876): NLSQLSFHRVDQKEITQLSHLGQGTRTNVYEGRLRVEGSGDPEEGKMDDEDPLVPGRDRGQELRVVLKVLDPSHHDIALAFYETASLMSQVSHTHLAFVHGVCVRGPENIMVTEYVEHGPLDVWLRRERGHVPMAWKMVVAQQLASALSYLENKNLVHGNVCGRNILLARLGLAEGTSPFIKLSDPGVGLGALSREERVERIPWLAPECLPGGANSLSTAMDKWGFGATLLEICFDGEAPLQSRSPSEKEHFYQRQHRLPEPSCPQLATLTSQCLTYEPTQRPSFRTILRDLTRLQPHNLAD

Structure (SMILES)	IC50 [1]	IC50 [2]
[2H]C([2H])([2H])N1CCn2nc(-c3cnc(NC(C)=O)cc3Nc3cc(C)nc(C(C)(F)F)n3)cc2C1 [Example 545, N-(4-((2-(1,1-difluoroethyl)-6-methylpyrimidin-4-yl)amino)-5-(5-(methyl-d3)-4,5,6,7-tetrahydropyrazolo[1,5-a]pyrazin-2-yl)pyridin-2-yl)acetamide]	≤ 10 nM	≤ 10 nM
COCCOc1nccc(Nc2cc(NC(C)=O)ncc2-c2ccn(C)n2)n1 [Example 549, N-(4-((2-(2-methoxyethoxy)pyrimidin-4-yl)amino)-5-(1-methyl-1H-pyrazol-3-yl)pyridin-2-yl)acetamide]	≤ 10 nM	100 to 1000 nM
COCCOc1ccnc(Nc2cc(NC(C)=O)ncc2-c2ccn(C)n2)n1 [Example 550, N-(4-((4-(2-methoxyethoxy)pyrimidin-2-yl)amino)-5-(1-methyl-1H-pyrazol-3-yl)pyridin-2-yl)acetamide]	≤ 10 nM	100 to 1000 nM
COc1nc(C)cc(Nc2cc(NC(C)=O)ncc2-c2ccn(C)n2)n1 [Example 551, N-(4-((2-methoxy-6-methylpyrimidin-4-yl)amino)-5-(1-methyl-1H-pyrazol-3-yl)pyridin-2-yl)acetamide]	≤ 10 nM	10 to 100 nM
COc1ccnc(Nc2cc(NC(C)=O)ncc2-c2ccn(C)n2)n1 [Example 553, N-(4-((4-methoxypyrimidin-2-yl)amino)-5-(1-methyl-1H-pyrazol-3-yl)pyridin-2-yl)acetamide]	10 to 100 nM	100 to 1000 nM
CC(=O)Nc1cc(Nc2cc(C)nc(C34COC(C)(C3)C4)n2)c(-c2ccn(C)n2)cn1 [Example 554, N-(5-(1-methyl-1H-pyrazol-3-yl)-4-((6-methyl-2-(1-methyl-2-oxabicyclo[2.1.1]hexan-4-yl)pyrimidin-4-yl)amino)pyridin-2-yl)acetamide]	10 to 100 nM	≥ 1000 nM
CC(=O)Nc1cc(Nc2cc(C)nc(C3CCOC3)n2)c(-c2ccn(C)n2)cn1 (centres unmarked) [Example 555, N-(5-(1-methyl-1H-pyrazol-3-yl)-4-((6-methyl-2-(tetrahydrofuran-3-yl)pyrimidin-4-yl)amino)pyridin-2-yl)acetamide]	≤ 10 nM	10 to 100 nM
CC(=O)Nc1cc(Nc2ccnc(C3CCOC3)n2)c(-c2ccn(C)n2)cn1 (centres unmarked) [Example 556, N-(5-(1-methyl-1H-pyrazol-3-yl)-4-((2-(tetrahydrofuran-3-yl)pyrimidin-4-yl)amino)pyridin-2-yl)acetamide]	≤ 10 nM	10 to 100 nM
CC(=O)Nc1cc(Nc2cc(C)nc(C34CCC(C3)OC4)n2)c(-c2ccn(C)n2)cn1 (centres unmarked) [Example 557, N-(4-((2-(2-oxabicyclo[2.2.1]heptan-4-yl)-6-methylpyrimidin-4-yl)amino)-5-(1-methyl-1H-pyrazol-3-yl)pyridin-2-yl)acetamide]	≤ 10 nM	10 to 100 nM
CC(=O)Nc1cc(Nc2cc(C)nc(C3(F)CC3)n2)c(-c2ccn(C)n2)cn1 [Example 558, N-(4-((2-(1-fluorocyclopropyl)-6-methylpyrimidin-4-yl)amino)-5-(1-methyl-1H-pyrazol-3-yl)pyridin-2-yl)acetamide]	≤ 10 nM	≤ 10 nM
COCCOc1nc(C)cc(Nc2cc(NC(C)=O)ncc2-c2ccn(C)n2)n1 [Example 559, N-(4-((2-(2-methoxyethoxy)-6-methylpyrimidin-4-yl)amino)-5-(1-methyl-1H-pyrazol-3-yl)pyridin-2-yl)acetamide]	≤ 10 nM	10 to 100 nM
CC(=O)Nc1cc(Nc2cc(C)nc([C@]34CO[C@](CF)(C3)C4)n2)c(-c2ccn(C)n2)cn1 [Example 560, N-(4-((2-((1s,4s)-1-(fluoromethyl)-2-oxabicyclo[2.1.1]hexan-4-yl)-6-methylpyrimidin-4-yl)amino)-5-(1-methyl-1H-pyrazol-3-yl)pyridin-2-yl)acetamide]	10 to 100 nM	≥ 1000 nM
CC(=O)Nc1cc(Nc2cc(C)nc(C34CC(CO3)C4)n2)c(-c2ccn(C)n2)cn1 [Example 562, N-(4-((2-(2-oxabicyclo[2.1.1]hexan-1-yl)-6-methylpyrimidin-4-yl)amino)-5-(1-methyl-1H-pyrazol-3-yl)pyridin-2-yl)acetamide]	≤ 10 nM	10 to 100 nM
CC(=O)Nc1cc(Nc2cc(C)nc(C34COC(C3)C4)n2)c(-c2ccc3c(n2)OCC(C)(C)O3)cn1 [Example 563, N-(4-((2-(2-oxabicyclo[2.1.1]hexan-4-yl)-6-methylpyrimidin-4-yl)amino)-5-(2,2-dimethyl-2,3-dihydrO[1,4]dioxino[2,3-b]pyridin-6-yl)pyridin-2-yl)acetamide]	≤ 10 nM	10 to 100 nM
CC(=O)Nc1cc(Nc2cc(C)nc(C34COC(C3)C4)n2)c(-c2cc3n(n2)CC(F)(F)C3)cn1 [Example 564, N-(4-((2-(2-oxabicyclo[2.1.1]hexan-4-yl)-6-methylpyrimidin-4-yl)amino)-5-(5,5-difluorO5,6-dihydrO4H-pyrrolo[1,2-b]pyrazol-2-yl)pyridin-2-yl)acetamide]	≤ 10 nM	≤ 10 nM
COCc1ccc(-c2cnc(NC(C)=O)cc2Nc2ccnc(C3CCOC3)n2)nc1 (centres unmarked) [Example 567, N-(5-(methoxymethyl)-4′-((2-(tetrahydrofuran-3-yl)pyrimidin-4-yl)amino)-[2,3′-bipyridin]-6′-yl)acetamide]	≤ 10 nM	10 to 100 nM

Structure (SMILES)	IC50 [1]	IC50 [2]
COCc1ccc(-c2cnc(NC(C)=O)cc2Nc2cc(C)nc(C3CCOC3)n2)nc1 (centres unmarked) [Example 568, N-(5-(methoxymethyl)-4′-((6-methyl-2-(tetrahydrofuran-3-yl)pyrimidin-4-yl)amino)-[2,3′-bipyridin]-6′-yl)acetamide]	≤ 10 nM	≤ 10 nM
CCc1cc(Nc2cc(NC(C)=O)ncc2-c2ccc(COC)cn2)nc(C2CCOC2)n1 (centres unmarked) [Example 569, N-(4′-((6-ethyl-2-(tetrahydrofuran-3-yl)pyrimidin-4-yl)amino)-5-(methoxymethyl)-[2,3′-bipyridin]-6′-yl)acetamide]	≤ 10 nM	≤ 10 nM
COCc1ccc(-c2cnc(NC(C)=O)cc2Nc2cc(COC)nc(C3CCOC3)n2)nc1 (centres unmarked) [Example 570, N-(5-(methoxymethyl)-4′-((6-(methoxymethyl)-2-(tetrahydrofuran-3-yl)pyrimidin-4-yl)amino)-[2,3′-bipyridin]-6′-yl)acetamide]	≤ 10 nM	10 to 100 nM
CC(=O)Nc1cc(Nc2cc(C)nc(C34COC(C3)C4)n2)c(-c2ccc(C(F)F)cn2)cn1 [Example 572, N-(4′-((2-(2-oxabicyclo[2.1.1]hexan-4-yl)-6-methylpyrimidin-4-yl)amino)-5-(difluoromethyl)-[2,3′-bipyridin]-6′-yl)acetamide]	≤ 10 nM	≤ 10 nM
CC(=O)Nc1cc(Nc2ccnc(C(C)(F)F)n2)c(-c2nc3c(s2)COCC3)cn1 [Example 573, N-(4-((2-(1,1-difluoroethyl)pyrimidin-4-yl)amino)-5-(6,7-dihydrO4H-pyrano[4,3-d]thiazol-2-yl)pyridin-2-yl)acetamide]	≤ 10 nM	≤ 10 nM
COC(C)c1ccc(-c2cnc(NC(C)=O)cc2Nc2cc(C)nc(C34COC(C3)C4)n2)nc1 (centres unmarked) [Example 575, N-(4′-((2-(2-oxabicyclo[2.1.1]hexan-4-yl)-6-methylpyrimidin-4-yl)amino)-5-(1-methoxyethyl)-[2,3′-bipyridin]-6′-yl)acetamide]	≤ 10 nM	≤ 10 nM
CC(=O)Nc1cc(Nc2cc(C)nc(C34COC(C3)C4)n2)c(-c2cc(C(F)F)ccn2)cn1 [Example 576, N-(4′-((2-(2-oxabicyclo[2.1.1]hexan-4-yl)-6-methylpyrimidin-4-yl)amino)-4-(difluoromethyl)-[2,3′-bipyridin]-6′-yl)acetamide]	≤ 10 nM	100 to 1000 nM
CC(=O)Nc1cc(Nc2cc(C)nc(C34COC(C3)C4)n2)c(-c2ccc(C(C)F)cn2)cn1 (centres unmarked) [Example 577, N-(4′-((2-(2-oxabicyclo[2.1.1]hexan-4-yl)-6-methylpyrimidin-4-yl)amino)-5-(1-fluoroethyl)-[2,3′-bipyridin]-6′-yl)acetamide]	≤ 10 nM	≤ 10 nM
CC(=O)Nc1cc(Nc2cc(C)nc(C(C)(F)F)n2)c(-c2coc(C)n2)cn1 [Example 578, N-(4-((2-(1,1-difluoroethyl)-6-methylpyrimidin-4-yl)amino)-5-(2-methyloxazol-4-yl)pyridin-2-yl)acetamide]	≤ 10 nM	≤ 10 nM
CC(=O)Nc1cc(Nc2ccnc(C(C)(F)F)n2)c(-c2cnn(C3CCC3)c2)cn1 [Example 579, N-(5-(1-cyclobutyl-1H-pyrazol-4-yl)-4-((2-(1,1-difluoroethyl)pyrimidin-4-yl)amino)pyridin-2-yl)acetamide]	100 to 1000 nM	≥ 1000 nM
CC(=O)Nc1cc(Nc2ccnc(C(C)(F)F)n2)c(-c2coc(C)n2)cn1 [Example 581, N-(4-((2-(1,1-difluoroethyl)pyrimidin-4-yl)amino)-5-(2-methyloxazol-4-yl)pyridin-2-yl)acetamide]	≤ 10 nM	10 to 100 nM
CCc1cc(Nc2cc(NC(C)=O)ncc2-c2ccc(F)cn2)nc(C(C)(F)F)n1 [Example 582, N-(4′-((2-(1,1-difluoroethyl)-6-ethylpyrimidin-4-yl)amino)-5-fluorO[2,3′-bipyridin]-6′-yl)acetamide]	≤ 10 nM	≤ 10 nM
CCc1cc(Nc2cc(NC(C)=O)ncc2-c2ccc(C#N)cn2)nc(C(C)(F)F)n1 [Example 583, N-(5-cyanO4′-((2-(1,1-difluoroethyl)-6-ethylpyrimidin-4-yl)amino)-[2,3′-bipyridin]-6′-yl)acetamide]	≤ 10 nM	≤ 10 nM
COCCOc1cc(Nc2cc(NC(C)=O)ncc2-c2ccncn2)nc(C(C)(F)F)n1 [Example 585, N-(4-((2-(1,1-difluoroethyl)-6-(2-methoxyethoxy)pyrimidin-4-yl)amino)-5-(pyrimidin-4-yl)pyridin-2-yl)acetamide]	≤ 10 nM	≤ 10 nM
COc1cncc(Nc2cc(NC(C)=O)ncc2-c2ccc(F)cn2)n1 [Example 586, N-(5-fluorO4′-((6-methoxypyrazin-2-yl)amino)-[2,3′-bipyridin]-6′-yl)acetamide]	≤ 10 nM	10 to 100 nM
